The text below walks through data of ChEMBL document CHEMBL1156124, “Assessment of the putative binding conformation of a pyrazolopyridine class of inhibitors of MAPKAPK2 using computational studies” (Eur J Med Chem, 2010).

The assay deals with MAP kinase-activated protein kinase 2 (Homo sapiens) (UniProt P49137). Briefly: Inhibition of MK2.
Sequence of MAP kinase-activated protein kinase 2 (Homo sapiens) (P49137 whole entry, looked up): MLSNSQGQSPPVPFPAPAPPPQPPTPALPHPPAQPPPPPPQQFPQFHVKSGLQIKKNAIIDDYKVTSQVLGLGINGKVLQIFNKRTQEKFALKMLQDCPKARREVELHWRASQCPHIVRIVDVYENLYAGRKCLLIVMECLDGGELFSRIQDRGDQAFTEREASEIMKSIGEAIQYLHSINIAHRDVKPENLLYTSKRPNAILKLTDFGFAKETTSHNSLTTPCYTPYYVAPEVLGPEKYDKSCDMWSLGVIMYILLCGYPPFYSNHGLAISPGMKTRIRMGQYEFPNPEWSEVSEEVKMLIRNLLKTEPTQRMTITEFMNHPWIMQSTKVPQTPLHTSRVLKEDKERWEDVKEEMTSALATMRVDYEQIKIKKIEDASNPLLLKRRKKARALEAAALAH
`CCOc1ccc(Nc2c(C)c(NCCC3CCCCN3)c(C#N)c3ccnn23)cc1` (centres undefined) showed an Activity of 10 µM. In turn, `CCOc1ccc(Nc2c(CC(C)C)c(N[C@@H]3CCCNC3)c(C#N)c3ccnn23)cc1` gave an Activity below 0.2 µM. Molecule `CCOc1ccc(Nc2c(C)c(NCCCNC3CCCCC3)c(C#N)c3ccnn23)cc1` returned an Activity of 1 µM. Next, `CCOc1ccc(Nc2c(C)c(N[C@H]3CC[C@H](NCc4ccccc4)CC3)c(C#N)c3ccnn23)cc1`: 0.2 µM. Next, `CCOc1ccc(Nc2c(C)c(NC3CCCC(N)C3)c(C#N)c3ccnn23)cc1` (centres undefined): 1 µM; `CCOc1ccc(Nc2c(C(C)C)c(N[C@H]3CC[C@H](N)CC3)c(C#N)c3ccnn23)cc1`: below 0.2 µM. The value for `CCOc1ccc(Nc2c(C)c(OCCN)nc3ccnn23)cc1` was 10 µM; that for `CCOc1ccc(Nc2c(C)c(NC3CCC(N)CC3)c(C#N)c3ccnn23)cc1` (centres undefined) was below 0.2 µM. Consider `CCOc1ccc(Nc2c(C3CC3)c(N[C@@H]3CCCNC3)c(C#N)c3ccnn23)cc1`, for which the Activity is 0.2 µM. Next, `Cc1c(N[C@@H]2CCCNC2)c(C#N)c2ccnn2c1Nc1ccccc1`: below 0.2 µM; `CCOc1ccc(Nc2c(C)c(NCCCCCCN)c(C#N)c3ccnn23)cc1`: 10 µM; `N#Cc1c(N[C@@H]2CCCNC2)cc(Nc2ccc(-c3ccccc3)cc2)n2nccc12`: 0.2 µM. The value for `CCOc1ccc(Nc2c(C3CC3)c(N[C@H]3CC[C@H](N)CC3)c(C#N)c3ccnn23)cc1` was below 0.2 µM; that for `CCOc1ccc(Nc2c(C)c(NC3CNCc4ccccc43)c(C#N)c3ccnn23)cc1` (centres undefined) was 1 µM; that for `CCOc1ccc(Nc2c(C)c(N[C@H]3CC[C@H](NCC(C)C)CC3)c(C#N)c3ccnn23)cc1` was below 0.2 µM. The value for `CCOc1ccc(Nc2c(C)c(NCC3CCCN3)c(C#N)c3ccnn23)cc1` (centres undefined) was 1 µM; that for `CCCc1c(N[C@@H]2CCCNC2)c(C#N)c2ccnn2c1Nc1ccc(OCC)cc1` was below 0.2 µM; that for `CCOc1ccc(Nc2c(C)c(NCCN)c(C#N)c3ccnn23)cc1` was 0.2 µM.

As to `CCOc1ccc(Nc2c(C)c(N[C@H]3CC[C@H](NCCc4ccccc4)CC3)c(C#N)c3ccnn23)cc1`, the Activity was 0.2 µM. Next, `Cc1c(N[C@@H]2CCCNC2)c(C#N)c2ccnn2c1Nc1nc2ccccc2s1`: below 0.2 µM; `CCOc1ccc(Nc2c(C)c(NC3CCCCC3N)c(C#N)c3ccnn23)cc1` (centres undefined): 10 µM; `c1ccn2nccc2c1`: below 0.2 µM.

`CCOc1ccc(Nc2c(C)c(NCCCCCN)c(C#N)c3ccnn23)cc1` came in with an Activity of 0.2 µM. Next, `Cc1c(N[C@H]2CC[C@H](N)CC2)c(C#N)c2ccnn2c1NOc1ccccc1`: 0.2 µM; `CCOc1ccc(Nc2c(C)c(NCCC3CCCN3C)c(C#N)c3ccnn23)cc1` (centres undefined): 10 µM. Next, `CCOc1ccc(Nc2c(CC)c(N[C@@H]3CCCNC3)c(C#N)c3ccnn23)cc1`: below 0.2 µM.

As to `CCOc1ccc(Nc2c(C)c(OC3CCCNC3)nc3ccnn23)cc1` (centres undefined), the Activity turned out to be 1 µM. The molecule `CCOc1ccc(Nc2c(C)c(N[C@H]3CC[C@H](NCC4CCCCC4)CC3)c(C#N)c3ccnn23)cc1` came in with an Activity of 0.2 µM.

For `COCCOc1ccc(Nc2c(C)c(N[C@@H]3CCCNC3)c(C#N)c3ccnn23)cc1`, the Activity is below 0.2 µM.

Take `CCOc1ccc(Nc2c(C)c(N[C@@H]3CCCC[C@H]3N)c(C#N)c3ccnn23)cc1`: the Activity was 10 µM. Molecule `N#Cc1c(N[C@@H]2CCCNC2)cc(Nc2ccccc2Cl)n2nccc12` registered an Activity of 0.2 µM.

Molecule `CCOc1ccc(Nc2c(C)c(NCC3CCNC3)c(C#N)c3ccnn23)cc1` (centres undefined) gave an Activity of 1 µM. Next, `CCOc1ccc(Nc2c(CC)c(N[C@H]3CC[C@H](N)CC3)c(C#N)c3ccnn23)cc1`: below 0.2 µM; `Cc1c(N[C@H]2CC[C@H](N)CC2)c(C#N)c2ccnn2c1Nc1ccc(-c2ccccc2)cc1`: below 0.2 µM; `C=CCc1c(N[C@@H]2CCCNC2)c(C#N)c2ccnn2c1Nc1ccc(OCC)cc1`: below 0.2 µM. The value for `CCOc1ccc(Nc2cc(N[C@@H]3CCCNC3)c(C#N)c3ccnn23)cc1` was 0.2 µM. The value for `CCOc1ccc(Nc2c(C)c(NCC3CCCCN3)c(C#N)c3ccnn23)cc1` (centres undefined) was 1 µM; that for `NC(=O)n1ncc2ccccc21` was below 150 µM; that for `CCOc1ccc(Nc2c(CCO)c(N[C@@H]3CCCNC3)c(C#N)c3ccnn23)cc1` was below 0.2 µM. With `CCOc1ccc(Nc2c(C)c(NCC3CCCNC3)c(C#N)c3ccnn23)cc1` (centres undefined), the Activity was found to be 1 µM. With `CCOc1ccc(Nc2c(C)c(N[C@H]3CCCNC3)c(C#N)c3ccnn23)cc1`, the Activity is below 0.2 µM. `N#Cc1c(N[C@H]2CC[C@H](N)CC2)cc(Nc2ccccc2Cl)n2nccc12`: the Activity was found to be 0.2 µM. The value for `N#Cc1c(N[C@H]2CC[C@H](N)CC2)cc(Nc2nc3ccccc3s2)n2nccc12` was 0.2 µM; that for `Cc1c(N[C@@H]2CCCNC2)c(C#N)c2ccnn2c1NCc1nc2ccccc2s1` was below 0.2 µM. Next, `CCOc1ccc(Nc2c(C)c(NCCC3CCCN3)c(C#N)c3ccnn23)cc1` (centres undefined): 1 µM. Next, `CCOc1ccc(Nc2c(C)c(NC3CCNCC3)c(C#N)c3ccnn23)cc1`: 0.2 µM.

In turn, `COCCOc1ccc(Nc2c(C)c(N[C@H]3CC[C@H](N)CC3)c(C#N)c3ccnn23)cc1` gave an Activity below 0.2 µM. The value for `CCOc1ccc(Nc2c(C)c(OC3CCC(N)CC3)nc3ccnn23)cc1` (centres undefined) was 0.2 µM; that for `CCOc1ccc(Nc2c(C)c(N[C@H]3CC[C@H](N)CC3)c(C#N)c3ccnn23)cc1` was below 0.2 µM; that for `COCCOc1ccc(Nc2c(C)c(N[C@H]3CCNC3)c(C#N)c3ccnn23)cc1` was 0.2 µM. Next, `CCOc1ccc(Nc2c(-c3ccccc3)c(NC3CCCNC3)c(C#N)c3ccnn23)cc1` (centres undefined): 0.2 µM; `CCOc1ccc(Nc2c(C)c(NC3CCC(NCc4ccccc4)CC3)c(C#N)c3ccnn23)cc1` (centres undefined): 0.2 µM. The value for `CCOc1ccc(Nc2c(C)c(NCCCN)c(C#N)c3ccnn23)cc1` was 0.2 µM; that for `CCOc1ccc(Nc2c(C)c(N[C@H]3CC[C@H](NCCCc4ccccc4)CC3)c(C#N)c3ccnn23)cc1` was 0.2 µM.
